Reference: ChEMBL document CHEMBL4823263, “Discovery of 2-(3-(3-Carbamoylpiperidin-1-yl)phenoxy)acetic Acid Derivatives as Novel Small-Molecule Inhibitors of the β-Catenin/B-Cell Lymphoma 9 Protein-Protein Interaction” (J Med Chem, 2021)

What was measured:
[1] = molecular target: T1, beta-catenin-B-cell lymphoma 9 protein complex (Homo sapiens) (UniProt P35222+O00512); assay: Disruption of beta-catenin/N-terminal biotinylated human BCL9 HD2 (350 to 375 residues) protein-protein interaction in human SW480 cells incubated for 1 hr followed by N-terminal biotinylated human BCL9 HD2 addition and measured after 2 hrs by pull-down assay; type: cell-based; conditions: time 3.0 hrs
[2] = molecular target: Protein Wnt-3a (Mus musculus) (UniProt P27467); assay: Inhibition of mouse wnt3a expressed in human MDA-MB-231 cells assessed as cyclin D1 level at 10 uM incubated for […] by quantitative real-time PCR analysis relative to control; type: cell-based; design: scale not given: the % may be the effect or the level left
Sequence of Protein Wnt-3a (Mus musculus) (P27467 whole entry, the tested form may be a part): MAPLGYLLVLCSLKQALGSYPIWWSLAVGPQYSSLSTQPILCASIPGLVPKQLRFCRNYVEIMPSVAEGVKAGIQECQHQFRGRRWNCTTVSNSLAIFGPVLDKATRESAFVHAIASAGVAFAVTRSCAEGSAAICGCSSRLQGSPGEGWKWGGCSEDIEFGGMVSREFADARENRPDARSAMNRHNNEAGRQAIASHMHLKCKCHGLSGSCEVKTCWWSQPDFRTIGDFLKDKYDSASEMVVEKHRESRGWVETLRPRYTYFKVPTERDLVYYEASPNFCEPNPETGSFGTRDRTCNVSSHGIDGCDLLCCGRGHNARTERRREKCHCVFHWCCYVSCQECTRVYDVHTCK

[3] = (§1) Inhibition of Wnt/beta-catenin transactivation signalling in human SW480 cells harboring wild type tcf4 binding sites incubated for 24 hrs by TOPFlash luciferase assay; type: cell-based
SW480 = assay: as §1; type: cell-based
[4] = molecular target: Protein Wnt-3a (Mus musculus) (UniProt P27467); assay: Inhibition of mouse wnt3a expressed in human MDA-MB-231 cells assessed as Axin2 level at 10 uM incubated for […] by quantitative real-time PCR analysis relative to control; type: cell-based; design: scale not given: the % may be the effect or the level left
[5] = molecular target: T2, beta-catenin-B-cell lymphoma 9 protein complex (Homo sapiens, UniProt P35222); assay: Inhibition of full length C-terminal 6-His-tagged beta-catenin (1 to 781 residues) (unknown origin) expressed in Escherichia coli BL21 (DE3)-N-terminal biotinylated human BCL9 (350 to 375 residues) protein-protein interaction incubated for 1 hr by Alphascreen assay
T2 sequence (P35222 whole entry): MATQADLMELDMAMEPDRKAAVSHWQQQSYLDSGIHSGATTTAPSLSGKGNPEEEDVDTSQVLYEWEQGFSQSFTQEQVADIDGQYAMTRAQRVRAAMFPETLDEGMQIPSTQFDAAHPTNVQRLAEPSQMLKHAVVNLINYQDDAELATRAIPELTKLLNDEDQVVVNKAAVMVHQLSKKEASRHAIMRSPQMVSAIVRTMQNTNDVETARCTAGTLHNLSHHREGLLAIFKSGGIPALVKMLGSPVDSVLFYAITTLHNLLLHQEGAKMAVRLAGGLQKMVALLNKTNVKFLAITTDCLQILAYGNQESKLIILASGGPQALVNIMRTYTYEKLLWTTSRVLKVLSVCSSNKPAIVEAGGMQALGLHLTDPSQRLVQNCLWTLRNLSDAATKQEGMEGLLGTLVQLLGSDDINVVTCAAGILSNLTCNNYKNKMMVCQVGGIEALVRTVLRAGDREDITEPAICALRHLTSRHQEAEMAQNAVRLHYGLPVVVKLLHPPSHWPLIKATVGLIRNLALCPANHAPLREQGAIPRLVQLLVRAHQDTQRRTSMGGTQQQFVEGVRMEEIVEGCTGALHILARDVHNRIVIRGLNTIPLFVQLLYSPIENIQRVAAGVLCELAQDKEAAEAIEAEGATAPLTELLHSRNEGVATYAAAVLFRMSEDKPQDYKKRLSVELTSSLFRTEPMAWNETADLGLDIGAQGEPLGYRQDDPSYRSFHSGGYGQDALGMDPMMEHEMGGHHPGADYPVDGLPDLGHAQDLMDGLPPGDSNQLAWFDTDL
T2 sequence (O00512 whole entry): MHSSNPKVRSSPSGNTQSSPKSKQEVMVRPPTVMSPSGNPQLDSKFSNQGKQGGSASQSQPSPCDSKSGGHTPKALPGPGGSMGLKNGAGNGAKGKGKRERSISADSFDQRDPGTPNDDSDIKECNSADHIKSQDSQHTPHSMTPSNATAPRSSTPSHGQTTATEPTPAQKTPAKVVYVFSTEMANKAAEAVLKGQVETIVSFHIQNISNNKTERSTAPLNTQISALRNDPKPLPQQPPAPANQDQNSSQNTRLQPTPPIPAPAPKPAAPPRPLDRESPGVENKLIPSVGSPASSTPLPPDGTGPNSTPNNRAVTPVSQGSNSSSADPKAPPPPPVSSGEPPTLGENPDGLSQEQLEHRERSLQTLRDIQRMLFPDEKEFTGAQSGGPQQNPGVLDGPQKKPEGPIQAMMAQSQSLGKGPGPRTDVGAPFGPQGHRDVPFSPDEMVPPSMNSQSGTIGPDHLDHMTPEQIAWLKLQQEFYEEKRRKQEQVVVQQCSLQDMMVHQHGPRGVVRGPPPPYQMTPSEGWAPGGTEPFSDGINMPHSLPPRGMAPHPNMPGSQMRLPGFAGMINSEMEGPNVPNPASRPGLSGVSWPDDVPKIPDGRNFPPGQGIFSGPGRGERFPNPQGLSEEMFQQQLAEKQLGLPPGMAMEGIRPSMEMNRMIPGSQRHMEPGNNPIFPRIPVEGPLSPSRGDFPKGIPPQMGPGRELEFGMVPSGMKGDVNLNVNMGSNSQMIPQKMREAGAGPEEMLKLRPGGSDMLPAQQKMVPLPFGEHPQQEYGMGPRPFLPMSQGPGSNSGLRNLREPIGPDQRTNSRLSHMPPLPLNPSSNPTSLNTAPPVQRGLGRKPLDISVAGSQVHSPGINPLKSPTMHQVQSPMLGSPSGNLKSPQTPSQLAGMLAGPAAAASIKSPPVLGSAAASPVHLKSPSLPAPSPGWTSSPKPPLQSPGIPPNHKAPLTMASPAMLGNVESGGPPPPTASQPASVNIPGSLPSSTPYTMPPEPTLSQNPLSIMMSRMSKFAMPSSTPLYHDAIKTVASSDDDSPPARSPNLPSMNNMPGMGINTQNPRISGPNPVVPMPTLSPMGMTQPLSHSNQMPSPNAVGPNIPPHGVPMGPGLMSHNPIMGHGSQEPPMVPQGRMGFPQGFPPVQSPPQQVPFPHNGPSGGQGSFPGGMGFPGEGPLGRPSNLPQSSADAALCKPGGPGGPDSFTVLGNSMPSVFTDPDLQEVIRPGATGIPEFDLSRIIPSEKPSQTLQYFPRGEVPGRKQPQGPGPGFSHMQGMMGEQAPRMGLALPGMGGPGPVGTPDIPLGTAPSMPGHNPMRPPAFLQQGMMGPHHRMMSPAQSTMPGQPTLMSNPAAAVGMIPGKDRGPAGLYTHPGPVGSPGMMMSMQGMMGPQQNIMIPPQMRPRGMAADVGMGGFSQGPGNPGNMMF

[6] = molecular target: Protein Wnt-3a (Mus musculus) (UniProt P27467); assay: Inhibition of mouse wnt3a expressed in human MDA-MB-231 cells assessed as LEF1 level at 10 uM incubated for […] by quantitative real-time PCR analysis relative to control; type: cell-based; design: scale not given: the % may be the effect or the level left
[7] = molecular target: T1, beta-catenin-B-cell lymphoma 9 protein complex (Homo sapiens); assay: Disruption of full length beta-catenin/BCL9 interaction in human HCT116 cells incubated for 24 hrs by co-immunoprecipitation assay; type: cell-based; conditions: HCT-116
HCT-116 = assay: Antiproliferative activity against human HCT116 cells incubated for 72 hrs by MTS assay; type: functional, cell-based; conditions: HCT-116, 72 h
[8] = molecular target: Protein Wnt-3a (Mus musculus) (UniProt P27467); assay: Inhibition of mouse wnt3a expressed in human MDA-MB-231 cells assessed as Axin2 level at 30 uM incubated for […] by quantitative real-time PCR analysis relative to control; type: cell-based; design: scale not given: the % may be the effect or the level left
[9] = molecular target: Protein Wnt-3a (Homo sapiens) (UniProt P56704); assay: Inhibition of Wnt3a in human SW480 cells assessed as Axin2 level at 30 uM incubated for […] by quantitative real-time PCR analysis relative to control; type: cell-based; design: scale not given: the % may be the effect or the level left
Sequence of Protein Wnt-3a (Homo sapiens) (P56704 whole entry): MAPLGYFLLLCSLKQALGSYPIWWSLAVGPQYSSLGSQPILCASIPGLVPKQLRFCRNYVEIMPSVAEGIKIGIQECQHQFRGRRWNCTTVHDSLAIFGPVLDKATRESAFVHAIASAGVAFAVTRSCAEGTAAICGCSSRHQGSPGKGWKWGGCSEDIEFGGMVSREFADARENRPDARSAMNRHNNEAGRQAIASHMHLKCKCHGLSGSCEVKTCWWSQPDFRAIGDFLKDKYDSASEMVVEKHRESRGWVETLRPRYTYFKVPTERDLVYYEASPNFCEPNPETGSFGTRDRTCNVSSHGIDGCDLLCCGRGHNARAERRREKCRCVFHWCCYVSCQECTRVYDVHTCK

Activity [1]: Dose-Dependent Effect
Activity [2]: 77%
IC50 [3]: 6.6 µM
Activity [4]: 57%
IC50 [5]: 4.4 µM
Activity [6]: 81%
Activity [7]: Dose-Dependent Effect
IC50 (HCT-116): 29.6 µM
Activity [8]: 50%
Activity [9]: 42%
SMILES: CC(C)(Oc1cccc(N2CCC[C@H](C(=O)N(Cc3ccc(-c4cccs4)cc3)C3CC3)C2)c1)C(=O)NS(=O)(=O)c1ccc(C#N)cc1
Activity (SW480): Dose-Dependent Effect
